Source: patent US5855906A, “Intravaginal drug delivery devices for the administration of 17β-oestradiol precursors” (priority 1994, dated 1999)
Converted amounts (≈) assume the structure as drawn.

How the values were obtained:
[1] = Aqueous solubility in distilled water at 20 °C; conditions: water
[2] = Plasma 17β-oestradiol in post-menopausal women with 60 μg intravaginal ring, 14 days (Example 10); conditions: 60 μg ring, over 14 days
[3] = Nominal in vitro daily release from intravaginal rings under sink conditions (1% w/v benzalkonium chloride, 37 °C); type: physicochemical; conditions: calculated as anhydrous 17β-oestradiol
Method: The nominal in vitro release rates set out in Table 1 for the rings of Examples 1-5 were determined under sink conditions of 1% (w/v) benzalkonium chloride. These release rates were determined in the following manner.
Each ring (n=4) was suspended in the dissolution medium in an individual flask which is then capped, placed in a suitable oven at 37° C. and shaken. The dissolution medium was changed every 24 hours (±30 minutes). An aliquot of the used dissolution medium was analysed by high performance liquid chromatography (HPLC) using reverse phase packing and UV detection (at 235 nm for 17β-oestradiol-3-acetate and for
. The sensitivity of the original and improved analytical methods is 5 μg/100 ml.

in vitro = conditions: human, blood
[4] = Stability during storage (observed in dissolution samples); conditions: dissolution medium samples
[5] = In vitro dissolution: mean daily release from full-length-core rings over up to 90 days in three media; type: physicochemical; conditions: for Mean Daily Release: 9 × 54 mm ring, core 141 × 2 mm, 37 °C, N = 4
Source text: In all cases the ring geometries comprise a ring of dimensions 9 mm (cross-sectional diameter)×54 mm (outer diameter) and containing a full length core (141 mm) of cross-sectional diameter 2 mm. […] The saline and benzalkonium chloride-containing media were chosen to ensure `sink conditions` in at least one medium for each intravaginal ring. It will be recognised by those skilled in the art that the term `sink conditions` refers to that set of experimental conditions in vitro which effectively simulates the active haemoperfusion that occurs in vivo, and which results in a maximum drug concentration gradient and maximum drug diffusion rate, at any given time, across the aqueous boundary layer. Thus, an in vitro dissolution experiment can be designed such that the solution solubility of the released drug in the dissolution medium is much greater than its bulk concentration in this medium at any given time, for example, by micellar drug solubilisation due to incorporation of a surfactant such as benzalkonium chloride (BKC), at a concentration above its critical micelle concentration. Thus, each ring was suspended by a thread in an individual closed flask containing the dissolution medium, maintained at a constant temperature of 37° C. The contents of the flask were gently agitated in order to prevent the occurrence of a hydrostatic layer on the surface of the ring. After 24 hours, the ring was removed and suspended in a flask of fresh dissolution medium of identical volume by a method identical to that previously described.

[6] = Silicone solubility at 37 °C in Dow Corning 360 medical fluid; type: physicochemical; conditions: organic solvent or mixture, Dow Corning 360 medical fluid, 37 °C, read-out: Silicone solubility
Method: Silicone solubility was determined at 37° C. in Dow Corning (Trade Mark) 360 medical fluid.

[7] = In vitro release from rings of varying core length and apparent/standard k value (Crank's equation); type: physicochemical; set-up: Standard k: unit not given here; conditions: for k: in µg/day/mm; for Mean Daily Release (as precursor): 250 ml 1% (w/v) BKC
Source text: Precursor release from a cylindrical device of core design, which comprises a polymer matrix in the form of a core incorporating 17β-oestradiol precursor and a sheath surrounding the core, can be described by Crank's equation: [formula] in which R=precursor release rate (μg/day)
Crank's equation relates the precursor release rate (R), in sink conditions, to the solubility (C2 S) and diffusibility (D) of the precursor in the polymer matrix, its partition characteristics (π) between the polymer matrix and the dissolution medium; and the ring dimensions (l, b, a). For any given precursor in any given polymer matrix, CS, D and π will be constant and can be grouped together to form the composite constant, k:
The k value can be empirically derived using Crank's equation in the following manner: [formula]
The k value is dependent on core length for certain of the 17β-oestradiol precursors (see Example 6 hereinafter). Accordingly, the k value at a core length of 35 mm has been denoted "standard k" value hereinafter.
Intravaginal drug delivery devices in the form of rings were prepared, each with a ring geometry as described in Table 3, by following the General Method of Manufacture set out hereinabove.
The dissolution medium was changed daily, following the protocol set out hereinabove. Mean daily release rates from the second week of dissolution experiments were used to determine the apparent k values presented in Table 3.
It was, therefore, decided to determine k values at a core length of 35 mm and such k values are hereinafter referred to as "standard k" values.
The standard k value was determined from the mean daily release rates observed in Example 6. The dissolution medium of 1.0% (w/v) of an aqueous solution of benzalkonium chloride was used in respect of the various 17β-oestradiol precursors, so as to ensure sink conditions.

solubility [1]: 3.8 µg/mL (≈ 12.1 µM) | mean increase in plasma 17β-oestradiol [2]: 117.98 pmol/L | nominal in vitro daily release rate ([3]; "60 μg" ring, core 2×12 mm): 57.5 to 62.5 µg | nominal in vitro daily release rate ([3]; "120 μg" ring, core 2×24 mm): 115 to 125 µg | nominal in vitro daily release rate ([3]; "240 μg" ring, core 2×47 mm): 230 to 250 µg | half-life (in vitro): < 1 min | Mean Daily Release ([5]; 0.133% (w/v) BKC): 700 μg per day | Mean Daily Release ([5]; 0.9% (w/v) saline): 350 μg per day | Mean Daily Release ([5]; 1.0% (w/v) BKC): 850 μg per day | solubility [6]: 186 µg/mL (≈ 592 µM) | apparent k value versus core length ([7]; Table 3 rings, 1% (w/v) BKC): varies with core length | Mean Daily Release ([7]; Table 4, 1.0% (w/v) BKC, core length 35 mm, n = 5): 236.66 µg/day | Standard k ([7]; Table 4, core length 35 mm, 1.0% (w/v) BKC): 10.017 | k (standard k) ([7]; Table 5, core length 35 mm): 10.017 μg/day/mm | k ([7]; core length 6 mm, 1% (w/v) BKC): 12.347 | Mean Daily Release (as precursor) ([7]; core length 6 mm, n = 5): 49.25 µg/day | k ([7]; core length 12 mm, 1% (w/v) BKC): 11.517 | Mean Daily Release (as precursor) ([7]; core length 12 mm, n = 5): 91.88 µg/day | k ([7]; core length 25 mm, 1% (w/v) BKC): 10.658 | Mean Daily Release (as precursor) ([7]; core length 25 mm, n = 5): 177.15 µg/day | k ([7]; core length 35 mm, 1% (w/v) BKC): 10.017 | Mean Daily Release (as precursor) ([7]; core length 35 mm, n = 5): 236.66 µg/day
SMILES: CC(=O)Oc1ccc2c(c1)CC[C@@H]1[C@@H]2CC[C@]2(C)[C@@H](O)CC[C@@H]12 [17β-oestradiol-3-acetate]
stability during storage [4]: hydrolysis to 17β-oestradiol during storage | release in vitro from intravaginal rings (in words) ([5]; BKC and saline media, ring geometry of Table 2): substantial release, in both BKC and in saline
